The record followed here is US20240018110A1, “RADIOLABELED COMPOUNDS TARGETING THE PROSTATE-SPECIFIC MEMBRANE ANTIGEN” (THE UNIVERSITY OF BRITISH COLUMBIA, priority 2020, published 2024).

The test system of this series is LNCaP xenograft. Nature of the series: Biodistribution of 68Ga-labeled compounds in mice bearing LNCaP xenograft. It counts as in vivo. As to conditions: 1 h p.i. How it is done: All chemicals and solvents were obtained from commercial sources, and used without further purification. PSMA-targeted peptides were synthesized using a solid phase approach on an AAPPTec (Louisville, KY) Endeavor 90 peptide synthesizer. Purification of peptides was performed on an Agilent 1260 Infinity II Preparative System equipped with a model 1260 Infinity II preparative binary pump, a model 1260 Infinity variable wavelength detector (set at 220 nm), and a 1290 Infinity II preparative open-bed fraction collector. The HPLC column used was a preparative column (Gemini, NX—C18, 5 μ, 50×30 mm) purchased from Phenomenex. The collected HPLC eluates containing the desired peptide were lyophilized using a Labconco (Kansas City, MO) FreeZone 4.5 Plus freeze-drier. Mass analyses were performed using a Waters LC-MS system with an ESI ion source. C18 Sep-Pak cartridges (1 cm^3, 50 mg) were obtained from Waters (Milford, MA). ^68Ga was eluted from an iThemba Labs (Somerset West, South Africa) generator. Radioactivity of ^68Ga-labeled peptides was measured using a Capintec (Ramsey, NJ) CRC®-25R/W dose calibrator, and the radioactivity of mouse tissues collected from biodistribution studies were counted using a Perkin Elmer (Waltham, MA) Wizard2 2480 automatic gamma counter.

As for `O=C(O)CCCC(NC(=O)NC(CCCONC(=O)C(Cc1c2ccccc2cc2ccccc12)NC(=O)C1CCC(CNC(=O)CN2CCN(CC(=O)O)CCN(CC(=O)O)CCN(CC(=O)O)CC2)CC1)C(=O)O)C(=O)O.[68Ga]` (stereo not drawn) [^68Ga-CCZ02018], the “Biodistribution, Adrenal (Avg)” value is 0.53 % ID/g; the “Biodistribution, Blood (Avg)” value is given as 0.67 % ID/g; the “Biodistribution, Bone (Avg)” value is given as 0.13 % ID/g; the “Biodistribution, Brain (Avg)” value is recorded as 0.03 % ID/g. Besides, the “Biodistribution, Fat (Avg)” value was 0.17 % ID/g; the “Biodistribution, Heart (Avg)” value worked out at 0.18 % ID/g; the “Biodistribution, Intestine (Avg)” value was found to be 0.25 % ID/g; the “Biodistribution, Kidney (Avg)” value worked out at 6.91 % ID/g. Moreover, the “Biodistribution, LNCaP tumor (Avg)” value worked out at 18.88 % ID/g; the “Biodistribution, Liver (Avg)” value is on record as 0.21 % ID/g; the “Biodistribution, Lungs (Avg)” value is 0.58 % ID/g; the “Biodistribution, Muscle (Avg)” value came out at 0.10 % ID/g. Moreover, the “Biodistribution, Pancreas (Avg)” value turned out to be 0.13 % ID/g; the “Biodistribution, Salivary gland (Avg)” value was 0.22 % ID/g; the “Biodistribution, Seminal (Avg)” value was determined as 0.27 % ID/g; the “Biodistribution, Spleen (Avg)” value came out at 0.24 % ID/g. The “Biodistribution, Stomach (Avg)” value worked out at 0.07 % ID/g; the “Biodistribution, Testes (Avg)” value was 0.22 % ID/g; the “Biodistribution, Thyroid (Avg)” value is recorded as 0.20 % ID/g; the “Biodistribution, Urine (Avg)” value came to 613.72 % ID/g.

With `O=C(O)CCC[C@H](OC(=O)N[C@@H](CCCCNC(=O)[C@H](Cc1c2ccccc2cc2ccccc12)NC(=O)[C@H]1CC[C@H](CNC(=O)CCc2ccc(O)c(CN(CCN(CC(=O)O)Cc3cc(CCC(=O)O)ccc3O)CC(=O)O)c2)CC1)C(=O)O)C(=O)O.[68Ga]` [^68Ga-AR-113-1], the “Biodistribution, Adrenal (Avg)” value is listed as 1.22 % ID/g; the “Biodistribution, Blood (Avg)” value was found to be 2.42 % ID/g; the “Biodistribution, Bone (Avg)” value came out at 0.34 % ID/g; the “Biodistribution, Brain (Avg)” value was 0.05 % ID/g. Moreover, the “Biodistribution, Fat (Avg)” value came to 0.56 % ID/g; the “Biodistribution, Heart (Avg)” value worked out at 0.85 % ID/g; the “Biodistribution, Intestine (Avg)” value is reported as 1.36 % ID/g; the “Biodistribution, Kidney (Avg)” value was 27.16 % ID/g. Moreover, the “Biodistribution, LNCaP tumor (Avg)” value was found to be 11.86 % ID/g; the “Biodistribution, Lacrimal (Avg)” value was determined as 0.13 % ID/g; the “Biodistribution, Liver (Avg)” value came to 1.31 % ID/g; the “Biodistribution, Lungs (Avg)” value is recorded as 1.93 % ID/g. The “Biodistribution, Muscle (Avg)” value amounted to 0.49 % ID/g; the “Biodistribution, Pancreas (Avg)” value came to 0.34 % ID/g; the “Biodistribution, Salivary gland (Avg)” value came to 1.05 % ID/g; the “Biodistribution, Spleen (Avg)” value was 0.61 % ID/g. The “Biodistribution, Stomach (Avg)” value stood at 0.22 % ID/g; the “Biodistribution, Testes (Avg)” value is 0.79 % ID/g; the “Biodistribution, Urine (Avg)” value was found to be 237.55 % ID/g.

Take `O=C(O)CCCC(NC(=O)NC(COCCNC(=O)C(Cc1c2ccccc2cc2ccccc12)NC(=O)C1CCC(CNC(=O)CN2CCN(CC(=O)O)CCN(CC(=O)O)CCN(CC(=O)O)CC2)CC1)C(=O)O)C(=O)O.[68Ga]` (stereo not drawn) [^68Ga-CCZ02011]: the “Biodistribution, Adrenal (Avg)” value is 0.36 % ID/g; the “Biodistribution, Blood (Avg)” value is given as 0.58 % ID/g; the “Biodistribution, Bone (Avg)” value amounted to 0.15 % ID/g; the “Biodistribution, Brain (Avg)” value was found to be 0.02 % ID/g. Besides, the “Biodistribution, Fat (Avg)” value is reported as 0.12 % ID/g; the “Biodistribution, Heart (Avg)” value was found to be 0.18 % ID/g; the “Biodistribution, Intestine (Avg)” value was found to be 0.40 % ID/g; the “Biodistribution, Kidney (Avg)” value is listed as 4.10 % ID/g. Moreover, the “Biodistribution, LNCaP tumor (Avg)” value is recorded as 14.08 % ID/g; the “Biodistribution, Lacrimal (Avg)” value is on record as 0.33 % ID/g; the “Biodistribution, Liver (Avg)” value is given as 0.27 % ID/g; the “Biodistribution, Lungs (Avg)” value came out at 0.43 % ID/g. Also, the “Biodistribution, Muscle (Avg)” value turned out to be 0.15 % ID/g; the “Biodistribution, Pancreas (Avg)” value came to 0.22 % ID/g; the “Biodistribution, Salivary gland (Avg)” value is reported as 0.27 % ID/g; the “Biodistribution, Seminal (Avg)” value is reported as 11.24 % ID/g. Further, the “Biodistribution, Spleen (Avg)” value amounted to 0.23 % ID/g; the “Biodistribution, Stomach (Avg)” value is listed as 0.07 % ID/g; the “Biodistribution, Testes (Avg)” value was determined as 0.51 % ID/g; the “Biodistribution, Thyroid (Avg)” value came out at 0.16 % ID/g. The “Biodistribution, Urine (Avg)” value is 343.93 % ID/g.

Regarding `O=C(O)CSCC(NC(=O)NC(Cc1ccc(NC(=O)C(Cc2c3ccccc3cc3ccccc23)NC(=O)C2CCC(CNC(=O)CN3CCN(CC(=O)O)CCN(CC(=O)O)CCN(CC(=O)O)CC3)CC2)cc1)C(=O)O)C(=O)O.[68Ga]` (stereo not drawn) [^68Ga-CCZ01188], the “Biodistribution, Adrenal (Avg)” value was found to be 0.98 % ID/g; the “Biodistribution, Blood (Avg)” value was 3.91 % ID/g; the “Biodistribution, Bone (Avg)” value turned out to be 0.23 % ID/g; the “Biodistribution, Brain (Avg)” value was found to be 0.07 % ID/g. Also, the “Biodistribution, Fat (Avg)” value was found to be 0.62 % ID/g; the “Biodistribution, Heart (Avg)” value amounted to 1.03 % ID/g; the “Biodistribution, Intestine (Avg)” value is 0.56 % ID/g; the “Biodistribution, Kidney (Avg)” value stood at 4.02 % ID/g. Besides, the “Biodistribution, LNCaP tumor (Avg)” value was found to be 1.43 % ID/g; the “Biodistribution, Liver (Avg)” value turned out to be 0.81 % ID/g; the “Biodistribution, Lungs (Avg)” value was 2.15 % ID/g; the “Biodistribution, Muscle (Avg)” value is listed as 0.41 % ID/g. The “Biodistribution, Pancreas (Avg)” value was 0.38 % ID/g; the “Biodistribution, Salivary gland (Avg)” value is 1.56 % ID/g; the “Biodistribution, Seminal (Avg)” value came to 0.85 % ID/g; the “Biodistribution, Spleen (Avg)” value is recorded as 0.61 % ID/g. In addition, the “Biodistribution, Stomach (Avg)” value came to 0.19 % ID/g; the “Biodistribution, Testes (Avg)” value is reported as 0.82 % ID/g; the “Biodistribution, Thyroid (Avg)” value is 0.67 % ID/g; the “Biodistribution, Urine (Avg)” value was 367.12 % ID/g.

On to `O=C(O)CCCC(NC(=O)NC(CNC(=O)CNC(=O)C(Cc1c2ccccc2cc2ccccc12)NC(=O)C1CCC(CNC(=O)CN2CCN(CC(=O)O)CCN(CC(=O)O)CCN(CC(=O)O)CC2)CC1)C(=O)O)C(=O)O.[68Ga]` (stereo not drawn) [68Ga-CCZ01198], for which the “Biodistribution, Adrenal (Avg)” value came to 0.19 % ID/g; the “Biodistribution, Blood (Avg)” value was determined as 0.43 % ID/g; the “Biodistribution, Bone (Avg)” value was 0.07 % ID/g; the “Biodistribution, Brain (Avg)” value is reported as 0.01 % ID/g. The “Biodistribution, Fat (Avg)” value turned out to be 0.07 % ID/g; the “Biodistribution, Heart (Avg)” value is listed as 0.11 % ID/g; the “Biodistribution, Intestine (Avg)” value was determined as 0.16 % ID/g; the “Biodistribution, Kidney (Avg)” value worked out at 2.18 % ID/g. In addition, the “Biodistribution, LNCaP tumor (Avg)” value is 4.84 % ID/g; the “Biodistribution, Liver (Avg)” value came to 0.15 % ID/g; the “Biodistribution, Lungs (Avg)” value is reported as 0.32 % ID/g; the “Biodistribution, Muscle (Avg)” value is reported as 0.07 % ID/g. Further, the “Biodistribution, Pancreas (Avg)” value came to 0.08 % ID/g; the “Biodistribution, Salivary gland (Avg)” value is 0.12 % ID/g; the “Biodistribution, Seminal (Avg)” value was determined as 0.47 % ID/g; the “Biodistribution, Spleen (Avg)” value is listed as 0.12 % ID/g. The “Biodistribution, Stomach (Avg)” value is given as 0.03 % ID/g; the “Biodistribution, Testes (Avg)” value is 0.14 % ID/g; the “Biodistribution, Thyroid (Avg)” value was determined as 0.13 % ID/g; the “Biodistribution, Urine (Avg)” value came to 384.68 % ID/g.

Turning to `O=C(O)CSCC(NC(=O)NC(Cc1cn(CCNC(=O)C(Cc2c3ccccc3cc3ccccc23)NC(=O)C2CCC(CNC(=O)CN3CCN(CC(=O)O)CCN(CC(=O)O)CCN(CC(=O)O)CC3)CC2)nn1)C(=O)O)C(=O)O.[68Ga]` (stereo not drawn) [^68Ga-CCZ01186], the “Biodistribution, Adrenal (Avg)” value is recorded as 0.29 % ID/g; the “Biodistribution, Blood (Avg)” value worked out at 0.72 % ID/g; the “Biodistribution, Bone (Avg)” value was found to be 0.13 % ID/g; the “Biodistribution, Brain (Avg)” value was 0.02 % ID/g. Also, the “Biodistribution, Fat (Avg)” value was determined as 0.16 % ID/g; the “Biodistribution, Heart (Avg)” value was determined as 0.57 % ID/g; the “Biodistribution, Intestine (Avg)” value was found to be 0.08 % ID/g; the “Biodistribution, Kidney (Avg)” value was determined as 2.20 % ID/g. In addition, the “Biodistribution, LNCaP tumor (Avg)” value stood at 0.89 % ID/g; the “Biodistribution, Liver (Avg)” value is listed as 0.23 % ID/g; the “Biodistribution, Lungs (Avg)” value is reported as 0.21 % ID/g; the “Biodistribution, Muscle (Avg)” value is listed as 0.23 % ID/g. Besides, the “Biodistribution, Pancreas (Avg)” value is listed as 0.16 % ID/g; the “Biodistribution, Salivary gland (Avg)” value was 0.40 % ID/g; the “Biodistribution, Seminal (Avg)” value was 6.65 % ID/g; the “Biodistribution, Spleen (Avg)” value is 0.34 % ID/g. Moreover, the “Biodistribution, Stomach (Avg)” value was 0.14 % ID/g; the “Biodistribution, Testes (Avg)” value is reported as 0.17 % ID/g; the “Biodistribution, Thyroid (Avg)” value was 2.49 % ID/g; the “Biodistribution, Urine (Avg)” value was 439.81 % ID/g.
